Source: the NIST ThermoML archive (doi:10.1021/je049762q)
± gives the expanded uncertainty stated by the source. Values belong to the compound of their own block, whether it stands above or below them.

Tests used:
[1] = Molar enthalpy of transition or fusion

SMILES: Brc1cc(Br)cc(Br)c1 [1,3,5-tribromobenzene]
- Triple point temperature (Crystal): 394.96 ± 0.16 K
- Molar enthalpy of transition or fusion ([1]; Crystal): 5.191 ± 0.0122 kcal/mol

- Triple point temperature (Crystal): 335.92 ± 0.09 K
- Molar enthalpy of transition or fusion ([1]; Crystal): 4.196 ± 0.0215 kcal/mol
SMILES: Clc1cc(Cl)cc(Cl)c1 [1,3,5-trichlorobenzene]

SMILES: Brc1ccc(Br)cc1 [1,4-dibromobenzene]
- Triple point temperature (Crystal): 360.48 ± 0.09 K
- Molar enthalpy of transition or fusion ([1]; Crystal): 4.873 ± 0.0158 kcal/mol

SMILES: Clc1ccc(Cl)cc1 [1,4-dichlorobenzene]
- Triple point temperature (Crystal 1): 326.24 ± 0.09 K
- Triple point temperature (Crystal 2): 306 ± 2 K
- Triple point temperature (Crystal 3): 275 ± 0.4 K
- Molar enthalpy of transition or fusion ([1]; Crystal 1): 4.28 ± 0.0153 kcal/mol
- Molar enthalpy of transition or fusion ([1]; Crystal 2): 0.0433 ± 0.0122 kcal/mol
- Molar enthalpy of transition or fusion ([1]; Crystal 3): 0.296 ± 0.0122 kcal/mol
